Source: patent US20060135587A1, “Method and compounds for promoting healing and reducing inflammation” (priority 2002, published 2006)
Like-named read-outs stand apart in the source and are kept apart here.

Assays:
[1] = system: acute Con A-induced inflammation; experiment: Acute Con A-induced inflammation (paw oedema) in mice; type: in vivo; settings: Table 3, male CBA mice
Protocol: Saline solution was similarly administered to the control animals. There were 10 mice in each group. After one hour, con A at a dose of 100 mkg/20 g of body weight was administered by sub-plantar injection into the plantar aponeurosis of the left paws of mice of both the experimental and control groups. The same amount of saline splution was injected into the contralateral paws. After one hour, the mice were killed and the experimental and control paws were weighed to assess the reaction index of the inflammation in the ankle-joint (Liubimov et al, 1999).
The anti-inflammatory effect of Compound 2 and Compound 7 was compared in male mice weighing 18-22 g, using the model described in Example 9. The ED50, i.e. the dose reducing paw ooedema by 50% one hour after injection of Concanavalin A, was calculated.

[2] = system: lesions of the gastric mucosa; experiment: Gastric lesions induced by electrostimulation of immobilised rats; type: in vivo
Protocol: (§1) The models used gastric ulcers induced by
a) Electrostimulation of immobilised rats for 3 hours;
(§2) The compounds were administered intraperitoneally at a dose of 20 mg/kg; in the cryogenic ulcer model compound 2 was administered either intraperitoneally (10 mg/kg) or orally (20 mg/kg twice daily, ie. a total of 40 mg/kg/day) and was compared to orally-administered gastrocepin (1 mg/kg twice daily, ie. a total of 2 mg/kg/day).

[3] = system: gastric secretory function; experiment: Gastric secretory function, chronic or acute tests; type: in vivo; settings: dogs or rats
[4] = system: cryogenic ulcer of the gastric mucosa; experiment: Cryogenic gastric ulcer in rats; type: in vivo; settings: healing effect over the course of 14 days; twice daily, oral
Protocol: as §1
c) Ulcer created by local wounding with a cryogenic probe using a method similar to that described above for mouth ulcers.
as §2

[5] = system: white male mice
Protocol: (§3) The acute toxicity of 1,3-dialkyl-4,5-bis (N-methylcarbamoyl)imidazolium salts was assessed following intraperitoneal injection into 200 white male mice weighing 18 to 20 g. Dead animals were counted daily after the administration of the test substance.

[6] = system: lesions of the gastric mucosa; experiment: Gastric lesions induced by immobilization and hypothermia; type: in vivo, rats; set-up: % reduction of degree of ulceration / % reduction of ulcerated area: concentration or dose not given beside the values; settings: Protective effect, 30 minutes before the test
Protocol: as §1
b) Immobilization and hypothermia (induced by water cooling);
as §2

[7] = system: cryogenic injuries of the sigmoid colon; experiment: Cryogenic damage of the colon, model of ulcerative colitis; type: in vivo, rats; settings: oral
Protocol: A model of cryogenic damage of the colon was used in this experiment to simulate ulcerative colitis. Cryogenic injuries of the sigmoid colon of rats were induced by pressing a metal rod of […] in diameter cooled in liquid nitrogen to the serous membrane of the colon for 10 seconds under ether anaesthesia.
Tests were performed on 67 male rats weighing 180-200 g, with 8 animals in each group. Animals were kept in separate cages, with normal food and water ad libitum. The test compounds were administered orally on the second day after the operation, and then daily until healing was complete. Compound 2 or Compound 6 was administered to test animals at a dose of 20-50 mg/kg. The following agents were used for comparison:
The nature of the healing of the ulcer injury was examined morphologically on days 1, 3 and 7. […] The inflammatory process extends beyond the injured area into the adjacent areas, and beyond the peritoneum into fatty connective tissue.

[8] = system: liver after partial hepatectomy; experiment: Morphological study of the liver after partial hepatectomy; type: in vivo, rats
Protocol: Morphological methods are highly informative in the assessment of repair processes. Histological tests of the liver after partial hepatectomy were performed using generally accepted methods. Microscopic sections were stained with hematoxylin and eosin using Van Gieson's methodology. Liver tests after partial hepatectomy were performed on 8 groups of animals, totalling 37 rats. All animals were examined one week after hepatectomy.

[9] = system: regeneration of liver after partial hepatectomy; experiment: Liver regeneration after partial hepatectomy in rats; type: in vivo; settings: for Catalase E activity / DNA content (in mg/g of tissue) / Protein content / RNA content (mg/g of tissue) / SOD activity: 0.2 mM/kg; for Level of recovery: 0.2 mM/kg intraperitoneally, 7 days, hepatectomy alone = 100
Protocol: Partial hepatectomy was performed using the conventional method (Higgins and Anderson, 1931) by removing the left lateral and central lobes of the liver from 80 male white rats, weighing 180-200 g.
Compound 2, Compound 4, Compound 5 or Compound 6 was administered to the experimental groups intraperitoneally in equimolar doses of 0.1 mM/kg and 0.2 mM/kg. These optimal doses were determined in preliminary experiments. The control group received intraperitoneal injections of saline solution. The compounds were administered on the day after the operation and then one injection was given daily over the course of 7 days, since maximum growth of the liver mass in rats is observed in the first 7 days after partial hepatectomy (Solopaev, 1980).
The effectiveness of the compounds was compared to that of a combination of non-steroid anabolic regeneration stimulators which are used in the treatment of liver pathology, namely Riboxin and potassium orotate at a dose of 0.2 mM/kg each (Rychnev and Frolov, 1984).
For quantitative evaluation of the regeneration process in the liver the coefficient of regeneration completion as determined by the formula below was used: [formula] where
Stimulation of the regeneration of tissue after hepatectomy in response to different medicinal preparations is associated with an increase in the synthesis of nucleic acids, as indicated by the increase in the content of RNA and DNA in the regenerated tissue. Quantitative analysis of DNA and RNA was performed by centrifugation. […] The enzymic component of anti-oxidant protection was also assessed on the basis of the activity of catalase and superoxidedismutase (SOD).
5 ml of […] of HCIO4 solution were added to the sample (100 mg). In order to ensure complete sedimentation of the acid-insoluble fraction, the beakers were put in ice for 15 minutes. Then they were centrifuged for 10 minutes at 5000 revolutions per minute. The sediment was washed twice with 0.2 M HCIO4. After the final centrifugation, the walls of the beaker were carefully dried with gauze and filter paper. The sediment was ground down with a glass pestle, suspended in 1 ml of water and then 1 ml of 0.6 M KON solution was added at room temperature. Hydrolysis was performed over the course of 1 hour at 37° C., then the beakers were put in ice to stop the hydrolysis process. 4 ml of the 0.6 M solution were added to each beaker and the beakers were left in ice for another 15 minutes, then centrifuged for 15 minutes at 5000 revolutions per minute. The supernatant was used to determine the RNA by UV absorption at 260 nm and 290 nm compared to the control sample containing 0.4M of HCIO4). The amount of RNA in μg per 1 ml of the supernatant was calculated using the following formula: [formula] where C=is the RNA concentration (μg/ml)
DNA analysis was carried out on the sediment remaining after the alkaline hydrolysis used to determine RNA. 0.5 M of HCIO4 (5 ml per sample) was poured into the dried beaker containing the sediment. Hydrolysis was performed in a boiling water bath for 20 minutes. The amount of DNA in μg per 1 ml of the hydrolysate was calculated using the following formula: [formula] where C=is the DNA concentration (μg/ml). Catalase Activity
Catalase activity was determined using the permanganate method. The optimal amount of the substrate (3 ml of 1% H2O2) and 1 ml of the enzyme were added to 10 ml of phosphate buffer, pH 7.8. After 10 minutes the reaction was stopped by adding 1.5 ml of H2SO4 (50%). The remaining hydrogen peroxide was filtered with 0.1M of KMnO4 solution. Catalase activity was calculated on the basis that 1 ml of 0.1M of KMnO4 solution corresponds to […] of H2O2.
SOD activity was determined using the dianisidine method, which is based on the fact that under ultraviolet irradiation Riboflavin (Rb) is converted to an excited (ionised) state and therefore becomes able to attack reduced dianisidine (DH2). […]

[10] = system: experimental granuloma; experiment: Cotton-wool granuloma (chronic proliferative inflammation) in rats; type: in vivo
Protocol: We investigated the ability of compound (2) to reduce the formation of granulation tissue in the inflammatory focus which develops at the site at which a non-sterile cotton-wool roll weighing 40 mg is implanted subcutaneously (Swingle and Shideman, 1972). Compound (2) was administered orally to male rats weighing 130-150 g at a dose of 100 mg/kg for 6 days before the cotton-wool roll was implanted, and then for 6 days at the same dose while the granuloma developed. Anti-inflammatory agents, such as ibuprofen and butadione, were used for comparison, using the same procedure. There were 10 rats in each group.
After 12 days the experiment was terminated, and the granulomas were excised, weighed, and the wet weight of the granulation tissue was measured. The dry mass of the granuloma was measured after drying for 24 hours at 70° C., and the exudative and proliferative stages of the granulomas were calculated. Statistical analysis was performed using the Student's parametric test.

[11] = oral dose used for the comparative medication; cited from earlier work
[12] = in vivo; settings: male, mouse, ip
Protocol: as §3

[13] = system: carrageenin-induced inflammation; experiment: Carrageenin-induced inflammation in intact and adrenalectomized rats; type: in vivo
Protocol: An acute inflammatory oedema was induced in intact and adrenalectomized male rats weighing 180-200 g by sub-plantar injection of 0.1 ml of 1% carrageenin solution into the left paw (Winter et al., 1962). The same volume of saline solution was injected into the contralateral paw. […] There were 10 rats in each group.
The degree of carrageenin-induced inflammation of the ankle joints was assessed at 3 hours after the induction of the inflammation, on the basis of the change in weight of the experimental and control paws (reaction index).

[14] = 10 mg/kg intra-peritoneally one hour before Con A
[15] = 50 mg/kg intra-peritoneally one hour before Con A
[16] = Healing effect over the course of 3 days
[17] = Protective effect, 30 minutes before the test
[18] = Adrenalectomized animals, 48 mg/kg orally 4 days + carrageenin

1,3-diethyl-4,5-bis(N-methylcarbamoyl)-imidazolium benzenesulfonate [Compound 3]
Reaction index (%) [1, 14]: 9.5 ± 2.5 %
Reaction index (%) [1, 15]: 9.5 ± 2.0 %
% reduction of degree of ulceration [2, 16]: 26.5%
Average number of lesions per animal [2, 16]: 2.5 ± 0.4
% reduction of degree of ulceration [2, 17]: 50%
% reduction of ulcerated area [2, 17]: 54%
Area of lesion [2, 17]: 7.1 ± 4.1
Average number of lesions per animal ([2]; Protective effect, 30 minutes before the test, 20 mg/kg intraperitoneally): 3.5 ± 0.4
effect on gastric secretory function [3]: did not affect gastric secretory function
% reduction of degree of ulceration [4]: 59%
Average number of lesions per animal [4]: 7.7 ± 2.5
LD50 [5]: over 500 mg/kg
toxicity [5]: very low toxicity
LD50 ([5]; intraperitoneal injection, white male mice, 14 days observation): 1292 mg/kg
% reduction of degree of ulceration [6]: 41%
% reduction of ulcerated area [6]: 41%
Area of lesion [6]: 7.2 ± 2.0
Average number of lesions per animal ([6]; 20 mg/kg intraperitoneally): 6.8 ± 1.4

1-methyl-3-ethyl-4,5-bis(N-methylcarbamoyl)-imidazolium salicylate [Compound 6]
indicators of healing relative to Compound 2 [7]: less pronounced
histological findings in the liver ([8]; 0.2 MM/kg, one week after hepatectomy): showed no undesirable effects
Catalase E activity [9]: 20.0 ± 2.7 μgM/min/g tissue × 1000
DNA content (in mg/g of tissue) [9]: 3.88 ± 0.17 mg/g of tissue
Protein content [9]: 93.0 ± 14.0 Mg/g tissue
RNA content (mg/g of tissue) [9]: 7.41 ± 0.16 mg/g of tissue
SOD activity [9]: 100.0 ± 4.7 Units/g tissue
Level of recovery [9]: 105.0

CCCCC1C(=O)N(c2ccccc2)N(c2ccccc2)C1=O [Butadione]
Granuloma weight (mg) Dry weight ([10]; 60 mg/kg): 145.4 ± 7.45 mg
Granuloma weight (mg) Exudative stage ([10]; 60 mg/kg): 682.6 mg
Granuloma weight (mg) Fresh weight ([10]; 60 mg/kg): 828.0 ± 76.68 mg
Granuloma weight (mg) Proliferative stages ([10]; 60 mg/kg): 105.4 mg
ED50 values from the literature [11]: 60 mg/kg

CC[n+]1cn(C)c(C(=O)NC)c1C(=O)NC [Compound 4, 1-methyl-3-ethyl-4,5-bis(N-methylcarbamoyl)-imidazolium chloride]
LD50 at 14 days [12]: 1220 mg/kg
Reaction index (%) [1, 14]: 14.1 ± 2.0%
Reaction index (%) [1, 15]: 12.4 ± 0.4 %
histological findings in the liver ([8]; rat, in vivo): showed no undesirable effects
Catalase E activity [9]: 18.0 ± 2.6 μgM/min/g tissue × 1000
DNA content (in mg/g of tissue) [9]: 3.72 ± 0.09 mg/g of tissue
Protein content [9]: 85.5 ± 10.6 Mg/g tissue
RNA content (mg/g of tissue) [9]: 7.14 ± 0.2 mg/g of tissue
SOD activity [9]: 90.0 ± 3.3 Units/g tissue
Level of recovery [9]: 128.3
toxicity [5]: very low toxicity

CC(C)Cc1ccc(C(C)C(=O)O)cc1 (stereo not drawn) [Ibuprofen, ibuprofen]
Granuloma weight (mg) Dry weight ([10]; 48 mg/kg): 143.2 ± 9.83 mg
Granuloma weight (mg) Exudative stage ([10]; 48 mg/kg): 670.8 mg
Granuloma weight (mg) Fresh weight ([10]; 48 mg/kg): 814.0 ± 63.72 mg
Granuloma weight (mg) Proliferative stages ([10]; 48 mg/kg): 103.2 mg
Inhibition of oedema(%) ([13]; 48 mg/kg 4 days + carrageenin): 63.39%
Reaction index (%) ([13]; 48 mg/kg 4 days + carrageenin): 15.88 ± 1.88 %
Inhibition of oedema(%) [13, 18]: 57.90%
Reaction index (%) [13, 18]: 18.12 ± 1.82 %
ED50 values from the literature [11]: 48 mg/kg
